Source: patent publication US20170349593A1, “BTK INHIBITORS” (MERCK SHARP & DOHME CORP., priority 2014, published 2017)

What was measured:
[1] = molecular target: T1, BTK enzyme (recombinant full-length BTK, hBTK) (Homo sapiens, UniProt Q06187); assay: Btk enzyme activity assay (LANCE TR-FRET); type: biochemical; details: 50 pM hBTK, 25 μM ATP, 60 minute compound and enzyme incubation, concentration range 1 μM to 0.017 nM, read-out: BTK binding IC50
T1 construct: recombinant protein from baculovirus-transfected S 19 cells: full-length BTK, 6 HIS-tag cleaved; 6 HIS-tag (cleaved yes); made in house

[2] = tested on: adenosine uptake into HeLa cells; assay: [3H]Adenosine uptake assay; type: cell-based; details: Homo sapiens; accumulation of [3H]adenosine into HeLa cells; concentration range 10 μM to 0.032 nM; read-out: ADU inhibition IC50
Description: Compounds are also screened in an adenosine uptake functional cellular assay using the protocol described below:
Adenosine uptake activity was determined by monitoring the accumulation of tritiated adenosine into HeLa cells (ATCC catalog #CCL-2) using a PMT-based radiometric detection instrument. In this assay, the potency (IC50) of each compound was determined from a ten point (1:3 serial dilution; final compound concentration range in assay from 10 μM to 0.032 nM) titration curve using the following outlined procedure. To each well of a 96-well CytoStar-T scintillating microplate (Perkin Elmer Catalog #RPNQ0163), 25 000 HeLa cells in 100 μL of growth medium comprising: Minimum Essential Media (Life Technologies Catalog #11095-080)+10% (v/v) foetal bovine serum (FBS; Sigma Aldrich Catalog #F2442) was added. These cells were incubated overnight at 37° C. in a humidified atmosphere with 5% (v/v) CO2. After this time the growth medium was removed and replaced with 40 μL assay medium comprising: Hanks balanced salts solution (HBSS; Thermo Fisher Catalog # SH30268.01)+5% (v/v) FBS. Compound stock solutions in DMSO were diluted in assay medium to 2.5× final compound concentration maintaining a constant DMSO concentration of 0.25% (v/v). 40 μL of compound in assay medium was dispensed into individual wells of the Cytostar-T plates and the plates were incubated for 30 minutes under ambient laboratory conditions. Following this incubation, 20 μL of 500 nM [^3H] adenosine (American Radiolabeled Chemicals Inc. Catalog #ART0287) in assay medium was added and incubated for a further 60 minutes under ambient laboratory conditions. The amount of radiolabel accumulation was then determined using a Perkin Elmer Topcount NXT microplate reader. In brief, HeLa cells adhere to the bottom of the Cytostar-T plate, uptake of [^3H]adenosine into these cells brings the radiolabel into sufficient proximity to excite the scintillant in the base of the plates. These events are captured by single PMT, time-resolved coincidence counting. IC50 values were determined by 4 parameter robust fit of counts per second values vs. (Log10)) compound concentrations.

T1 sequence (Q06187 whole entry): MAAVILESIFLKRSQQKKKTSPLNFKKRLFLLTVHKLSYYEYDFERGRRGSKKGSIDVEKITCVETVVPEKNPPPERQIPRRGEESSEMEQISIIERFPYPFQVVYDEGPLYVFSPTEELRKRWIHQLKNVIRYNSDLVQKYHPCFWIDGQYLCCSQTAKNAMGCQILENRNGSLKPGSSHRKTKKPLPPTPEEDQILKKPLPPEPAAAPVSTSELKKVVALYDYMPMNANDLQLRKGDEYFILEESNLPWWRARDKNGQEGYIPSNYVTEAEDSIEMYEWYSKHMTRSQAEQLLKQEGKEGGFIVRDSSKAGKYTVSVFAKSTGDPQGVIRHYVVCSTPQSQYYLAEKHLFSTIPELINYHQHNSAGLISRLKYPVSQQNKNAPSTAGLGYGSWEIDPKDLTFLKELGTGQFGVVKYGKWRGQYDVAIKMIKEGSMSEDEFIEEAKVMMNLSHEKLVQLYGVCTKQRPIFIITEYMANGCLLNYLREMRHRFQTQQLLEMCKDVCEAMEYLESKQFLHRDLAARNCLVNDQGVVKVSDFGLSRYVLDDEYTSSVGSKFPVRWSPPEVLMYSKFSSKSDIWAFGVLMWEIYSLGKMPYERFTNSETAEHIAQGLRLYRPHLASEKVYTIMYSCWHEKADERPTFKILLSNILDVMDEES

| Compound | IC50 [1] [nM] | IC50 [2] [nM] |
| --- | --- | --- |
| CCOc1cc(C(=O)Nc2cc(C(F)(F)F)ccn2)ccc1-c1nc([C@H]2CN(C(=O)C3(C)CC3)[C@@H](C)CO2)n2c(Cl)cnc(N)c12 [Example 12, 4-(8-amino-5-chloro-3-{(2R,5S)-5-methyl-4-[(1-methylcyclopropyl)carbonyl]morpholin-2-yl}imidazo[1,5-a]pyrazin-1-yl)-3-ethoxy-N-[4-(trifluoromethyl)pyridin-2-yl]benzamide] | 1.1 | ≥ 10000 |
| COc1cc(C(=O)Nc2cc(C(F)(F)F)ccn2)ccc1-c1nc([C@H]2CN(C(=O)[C@H](C)OC)[C@@H](C)CO2)n2c(Cl)cnc(N)c12 [Example 13, 4-(8-amino-5-chloro-3-{(2R,5S)-4-[(2S)-2-methoxypropanoyl]-5-methylmorpholin-2-yl}imidazo[1,5-a]pyrazin-1-yl)-3-methoxy-N-[4-(trifluoromethyl)pyridin-2-yl]benzamide] | 3.89 | 1710 |
| COc1cc(C(=O)Nc2cc(C(F)(F)F)ccn2)ccc1-c1nc([C@H]2CN(C(=O)C3(C)CC3)[C@@H](C)CO2)n2c(Cl)cnc(N)c12 [Example 18, 4-(8-amino-5-chloro-3-{(2R,5S)-5-methyl-4-[(1-methylcyclopropyl)carbonyl]morpholin-2-yl}imidazo[1,5-a]pyrazin-1-yl)-3-methoxy-N-[4-(trifluoromethyl)pyridin-2-yl]benzamide] | 2.8 | 3230 |
| CCOc1cc(C(=O)Nc2cc(C(F)(F)F)ccn2)ccc1-c1nc([C@H]2CN(C(C)=O)[C@@H](C)CO2)n2c(Cl)cnc(N)c12 [Example 20, 4-{3-[(2R,5S)-4-acetyl-5-methylmorpholin-2-yl]-8-amino-5-chloroimidazo[1,5-a]pyrazin-1-yl}-3-ethoxy-N-[4-(trifluoromethyl)pyridin-2-yl]benzamide] | 1.36 | 3910 |
| CCOc1cc(C(=O)Nc2cc(C(F)(F)F)ccn2)ccc1-c1nc([C@H]2CN(C(=O)[C@H](C)OC)[C@@H](C)CO2)n2c(Cl)cnc(N)c12 [Example 21, 4-(8-amino-5-chloro-3-{(2R,5S)-4-[(2S)-2-methoxypropanoyl]-5-methylmorpholin-2-yl}imidazo[1,5-a]pyrazin-1-yl)-3-ethoxy-N-[4-(trifluoromethyl)pyridin-2-yl]benzamide] | 1.43 | 7270 |
| CCOc1cc(C(=O)Nc2cc(C(F)(F)F)ccn2)ccc1-c1nc([C@H]2CN(C(=O)[C@H](C)O)[C@@H](C)CO2)n2c(Cl)cnc(N)c12 [Example 22, 4-(8-amino-5-chloro-3-{(2R,5S)-4-[(2S)-2-hydroxypropanoyl]-5-methylmorpholin-2-yl}imidazo[1,5-a]pyrazin-1-yl)-3-ethoxy-N-[4-(trifluoromethyl)pyridin-2-yl]benzamide] | 1.21 | 4530 |
| CCOc1cc(C(=O)Nc2cc(C(F)(F)F)ccn2)ccc1-c1nc([C@H]2CN(Cc3cnn(C)c3)[C@@H](C)CO2)n2c(Cl)cnc(N)c12 [Example 23, 4-(8-amino-5-chloro-3-{(2R,5S)-5-methyl-4-[(1-methyl-1H-pyrazol-4-yl)methyl]morpholin-2-yl}imidazo[1,5-a]pyrazin-1-yl)-3-ethoxy-N-[4-(trifluoromethyl)pyridin-2-yl]benzamide] | 3.02 | 1200 |
| CCOc1cc(C(=O)Nc2cc(C(F)(F)F)ccn2)ccc1-c1nc([C@H]2CN(CC)[C@@H](C)CO2)n2c(Cl)cnc(N)c12 [Example 24, 4-{8-amino-5-chloro-3-[(2R,5S)-4-ethyl-5-methylmorpholin-2-yl]imidazo[1,5-a]pyrazin-1-yl}-3-ethoxy-N-[4-(trifluoromethyl)pyridin-2-yl]benzamide] | 1.54 | 2350 |
| COc1cc(C(=O)Nc2cc(C(F)(F)F)ccn2)ccc1-c1nc([C@H]2CN(Cc3cnn(C)c3)[C@@H](C)CO2)n2c(Cl)cnc(N)c12 [Example 25, 4-(8-amino-5-chloro-3-{(2R,5S)-5-methyl-4-[(1-methyl-1H-pyrazol-4-yl)methyl]morpholin-2-yl}imidazo[1,5-a]pyrazin-1-yl)-3-methoxy-N-[4-(trifluoromethyl)pyridin-2-yl]benzamide] | 1.94 | 930 |
| CCOc1cc(C(=O)Nc2cc(C(F)(F)F)ccn2)ccc1-c1nc([C@H]2CN(C3CCOCC3)[C@@H](C)CO2)n2c(Cl)cnc(N)c12 [Example 27, 4-{8-amino-5-chloro-3-[(2R,5S)-5-methyl-4-(tetrahydro-2H-pyran-4-yl)morpholin-2-yl]imidazo[1,5-a]pyrazin-1-yl}-3-ethoxy-N-[4-(trifluoromethyl)pyridin-2-yl]benzamide] | 2.22 | 1880 |
| COCCC(=O)N1CC(N2C[C@H](c3nc(-c4ccc(C(=O)Nc5cc(C(F)(F)F)ccn5)cc4OC)c4c(N)nccn34)OC[C@@H]2C)C1 [Example 28, 4-(8-amino-3-{(2R,5S)-4-[1-(3-methoxypropanoyl)azetidin-3-yl]-5-methylmorpholin-2-yl}imidazo[1,5-a]pyrazin-1-yl)-3-methoxy-N-[4-(trifluoromethyl)pyridin-2-yl]benzamide] | 7.61 | ≥ 10000 |
| COc1cc(C(=O)Nc2cc(C(F)(F)F)ccn2)ccc1-c1nc([C@H]2CN(C3CN(C(=O)C4CC4)C3)[C@@H](C)CO2)n2ccnc(N)c12 [Example 29, 4-(8-amino-3-{(2R,5S)-4-[1-(cyclopropylcarbonyl)azetidin-3-yl]-5-methylmorpholin-2-yl}imidazo[1,5-a]pyrazin-1-yl)-3-methoxy-N-[4-(trifluoromethyl)pyridin-2-yl]benzamide] | 3.45 | 3860 |
| COc1cc(C(=O)Nc2cc(C(F)(F)F)ccn2)ccc1-c1nc([C@H]2CN(C3CN(Cc4c(F)cccc4F)C3)[C@@H](C)CO2)n2ccnc(N)c12 [Example 30, 4-(8-amino-3-{(2R,5S)-4-[1-(2,6-difluorobenzyl)azetidin-3-yl]-5-methylmorpholin-2-yl}imidazo[1,5-a]pyrazin-1-yl)-3-methoxy-N-[4-(trifluoromethyl)pyridin-2-yl]benzamide] | 10.7 | 1040 |

Other lines, results leading:

| IC50 [1] [nM] | IC50 [2] [nM] | Compound |
| --- | --- | --- |
| 2.04 | 1690 | COc1cc(C(=O)Nc2cc(C(F)(F)F)ccn2)ccc1-c1nc([C@H]2CN(C(=O)[C@@H](C)O)[C@@H](C)CO2)n2c(Cl)cnc(N)c12 [Example 14, 4-(8-amino-5-chloro-3-{(2R,5S)-4-[(2R)-2-hydroxypropanoyl]-5-methylmorpholin-2-yl}imidazo[1,5-a]pyrazin-1-yl)-3-methoxy-N-[4-(trifluoromethyl)pyridin-2-yl]benzamide] |
| 4.14 | 3260 | COc1cc(C(=O)Nc2cc(C(F)(F)F)ccn2)ccc1-c1nc([C@H]2CN(C(=O)C(C)C)[C@@H](C)CO2)n2c(Cl)cnc(N)c12 [Example 15, 4-{8-amino-5-chloro-3-[(2R,5S)-5-methyl-4-(2-methylpropanoyl)morpholin-2-yl]imidazo[1,5-a]pyrazin-1-yl}-3-methoxy-N-[4-(trifluoromethyl)pyridin-2-yl]benzamide] |
| 1.25 | 2790 | CCC(=O)N1C[C@H](c2nc(-c3ccc(C(=O)Nc4cc(C(F)(F)F)ccn4)cc3OC)c3c(N)ncc(Cl)n23)OC[C@@H]1C [Example 16, 4-{8-amino-5-chloro-3-[(2R,5S)-5-methyl-4-propanoylmorpholin-2-yl]imidazo[1,5-a]pyrazin-1-yl}-3-methoxy-N-[4-(trifluoromethyl)pyridin-2-yl]benzamide] |
| 2.27 | 1620 | COc1cc(C(=O)Nc2cc(C(F)(F)F)ccn2)ccc1-c1nc([C@H]2CN(C(C)=O)[C@@H](C)CO2)n2c(Cl)cnc(N)c12 [Example 17, 4-{3-[(2R,5S)-4-acetyl-5-methylmorpholin-2-yl]-8-amino-5-chloroimidazo[1,5-a]pyrazin-1-yl}-3-methoxy-N-[4-(trifluoromethyl)pyridin-2-yl]benzamide] |
| 1.23 | ≥ 10000 | CCOc1cc(C(=O)Nc2cc(C(F)(F)F)ccn2)ccc1-c1nc([C@H]2CN(C(=O)CC)[C@@H](C)CO2)n2c(Cl)cnc(N)c12 [Example 19, 4-{8-amino-5-chloro-3-[(2R,5S)-5-methyl-4-propanoylmorpholin-2-yl]imidazo[1,5-a]pyrazin-1-yl}-3-ethoxy-N-[4-(trifluoromethyl)pyridin-2-yl]benzamide] |
| 3.62 | 1020 | CCN1C[C@H](c2nc(-c3ccc(C(=O)Nc4cc(C(F)(F)F)ccn4)cc3OC)c3c(N)ncc(Cl)n23)OC[C@@H]1C [Example 26, 4-{8-amino-5-chloro-3-[(2R,5S)-4-ethyl-5-methylmorpholin-2-yl]imidazo[1,5-a]pyrazin-1-yl}-3-methoxy-N-[4-(trifluoromethyl)pyridin-2-yl]benzamide] |
